Reference: patent US20160025704A1, “METHODS FOR IDENTIFYING NEUROPROTECTIVE PKC ACTIVATORS” (priority 2013, published 2016)

Assays:
Human primary neurons = assay: ASPD-induced apoptosis in human primary neurons (Annexin-V Fluorescein); type: cell-based; details: 0.27 nM with 100 nM ASPD, 24 hours
Protocol: Protocol: Human primary neurons were grown on chambered slides and treated with vehicle (Control), 100 nM ASPD, ASPD+DCPLA-ME (100 nM), ASPD+bryostatin 1 (0.27 nM) and ASPD+DCPLA-ME (100 nM) or ASPD+bryostatin 1 (0.27 nM) in presence of PKC-ε inhibitor. Following 24 hours of incubation, cells were stained using Annexin-V Fluorescein to detect apoptotic cells and results are shown in FIG. 10 below. […] Data are mean±SEM of three independent experiments. (*p<0.05;** p<0.005 and *** p<0.0005).

human neprilysin = assay: Neprilysin activity in SH+hNEP cells (fluorometric); type: cell-based; details: 1 nM for 15 min to 3 hours; 0.27, 0.5, 1, or 2 nM for 1 hr (FIG. 32)
Protocol: Protocol: Intact SH+hNEP cells were incubated in the absence or presence of bryostatin (1 nM) for 15 min, 30 min, 1 hour, or 3 hours. Cells were then lysed and neprilysin activity was measured. 50 μg of total lysates were separately incubated with 0.5 mM glutaryl-Ala-Ala-Phe-4-methoxy-2-naphthylamide as a substrate. Further incubation with leucine aminopeptidases released free 4-methoxy-2-naphthylamide that was measured fluorometrically at an emission of 425 nm (Mean+SEM of three independent experiments, *P<0.05; **P<0.01, Bryo compared with untreated condition). Intact SH+hNEP cells were incubated in the absence or presence of bryostatin (Bryo) at 0.27, 0.5, 1, or 2 nM concentration for 1 hr, lysed and then neprilysin activity for each condition was fluorometically measured as shown in (A) (Mean+SEM of three independent experiments, *P<0.05; **P<0.01, Bryo compared with untreated condition). Results are shown below in FIG. 32 (A—fluorometric results of free 4-methoxy-2-naphthylamide measured at different time points; B—fluorometric results of free 4-methoxy-2-naphthylamide measured at different concentrations of bryostatin).
Immunoprecipitates were subjected to Western blot analysis using phospho-Ser/Thr or neprilysin antibody (Mean+SEM of three independent experiments, **P<0.01, Bryo compared with untreated; #P<0.01, Ro+Bryo compared with Bryo). […]

cerebral ischemia rats [1] = assay: Retention of spatial learning and memory after cerebral ischemia (training before ischemia); type: in vivo; details: 15 μg/m^2 tail vein, 2 doses/week for 10 doses; second probe test 2 weeks after last dose (FIG. 22)
Protocol: Protocol: An initial evaluation of the test rats was undertaken to observe their spatial learning (2 trials/day for 6 days) and memory (a probe test of 1 min, 24 hours after the last trial). Cerebral ischemia was induced 1 day after the probe test, followed by bryostatin-1 (15 μg/m^2) administration through a tail vein (2 doses/week, for 10 doses), starting 24 hours after the end of the ischemic (2-VO)/hypoxic event. A second probe test was performed 2 weeks after the last bryostatin-1 dose. Results are shown in A for the spatial water maze performance of the rats over training trials (2 trials/day for 6 days) before the ischemia/treatment (means±SEM.; trials: F11,383=40.483, P<0.001; groups: F3,383=0.315, P>0.05). Results of the probe test after the training trials before the ischemia and/or treatment are shown in B-E (Quadrant 4 was the target quadrant). Results are shown for the target quadrant ratios before (pre-Isch) and after (post-Isch) the ischemia and/or treatment in F. Results are shown in G for the latency of the first crossing the target location before (pre-Isch) and after (post-Isch) the ischemia and/or treatment. There were eight rats/group (Bry—bryostatin-1; Isch.—cerebral ischemia) (*, P<0.05. NS: P>0.05).

cerebral ischemia rats [2] = assay: Pyramidal cells, BDNF and synapses in dorsal hippocampal CA1 area after cerebral ischemia; type: in vivo; details: 15 μg/m^2 tail vein for 5 weeks beginning 24 hours after ischemic/hypoxic event
Protocol: Protocol: Rats were administered bryostatin-1 (15 μg/m^2, tail vein injection) for 5 weeks beginning 24 hours after the end of the ischemic/hypoxic event. […] Non-treated groups received the same vehicle volumes, mechanism of delivery, and frequency of administration as the treated groups.

[3] = tested on: fragile X transgenic mice; assay: Synapses in fragile X transgenic mice; type: in vivo; details: 25 μg/kg body weight intraperitoneal twice a week for 3 months
Protocol: Protocol: Bryostatin (25 μg/kg body weight, intraperitoneal injection) was administered to 2 month old fragile X transgenic mice twice a week for 3 months. […] Non-treated groups (WC and TC) received the same vehicle volumes, mechanism of delivery, and frequency of administration as the treated groups.

[4] = postischemic/hypoxic treatment; Sun and Alkon 2008; cited from earlier work
TA 1535 Cells = assay: AMES test, TA1535 cells; type: cell-based; details: TA1535 Cells, plate count
Text: The AMES test is a rapid screening of the mutagenic potential of chemical compounds. […] Between 50% and 70% of all known carcinogens test positive in the AMES test.

5XFAD mice = assay: Synaptic loss in hippocampal CA1 area of 5XFAD mice; type: in vivo
Protocol: Protocol: DCPLA (20 mg/m^2, tail vein injection) was administered to 2-month old 5XFAD mice twice a week. At five months old, hippocampal slices from the brains of the mice were processed for immunohistochemistry and confocal microscopy analysis. Results are shown for analysis of spinophilin density (A, B), synaptophysin density (A, D) not caused by axonal bouton (synaptophysin granules) (C) and neuronal loss (E, F). […] Non-treated groups (wild-type and transgenic (Tg) mice) received the same vehicle volumes, mechanism of delivery, and frequency of administration as the treated groups.

Row | Structure (SMILES) | protection against ASPD-induced apoptosis (Human primary neurons) | neprilysin activity (human neprilysin) | learning experience and memory after cerebral ischemia (cerebral ischemia rats [1]) | immunofluorescence intensity of BDNF (cerebral ischemia rats [2]) | loss of dendritic spines and synapses (cerebral ischemia rats [2]) | neuronal loss (cerebral ischemia rats [2]; 9 days after last dose) | losses of postsynaptic dendritic spines [3] | losses of presynaptic vesicles within presynaptic axonal boutons [3] | losses of synapses [3] | ischemia-induced deficits in synaptogenesis, neurotrophic activity, and spatial learning and memory [4] | Negative (TA 1535 Cells; 0.125 mM) | Positive (TA 1535 Cells; 0.125 mM) | Negative (TA 1535 Cells; 0.25 mM) | Positive (TA 1535 Cells; 0.25 mM) | Negative (TA 1535 Cells; 0.5 mM) | Positive (TA 1535 Cells; 0.5 mM) | Negative (TA 1535 Cells; 1 mM) | Positive (TA 1535 Cells; 1 mM) | mushroom spine shape dendritic spines and synapses (5XFAD mice; 20 mg/m^2 tail vein twice a week from 2 months old, analysis at five months) | synaptic loss in hippocampal CA1 area (5XFAD mice; 5XFAD mice at 5 months old (FIG. 20))
1 | CCC/C=C/C=C/C(=O)O[C@H]1/C(=C/C(=O)OC)C[C@H]2C[C@H]([C@@H](C)O)OC(=O)C[C@H](O)C[C@@H]3C[C@H](OC(C)=O)C(C)(C)[C@](O)(C[C@@H]4C/C(=C/C(=O)OC)C[C@H](/C=C/C(C)(C)[C@]1(O)O2)O4)O3 [Bryostatin, bryostatin-1] | protected against ASPD-induced apoptosis | increases neprilysin activity | rescues learning experience and memory | induced an increase in the immunofluorescence intensity of brain-derived neurotrophic factor (BDNF) | protected the loss of dendritic spines and synapses | prevented neuronal loss | rescued the losses of | rescued the losses of | rescued the losses of synapses | effectively rescued ischemia-induced deficits in synaptogenesis, neurotrophic activity, and spatial learning and memory |  |  |  |  |  |  |  |  |  | 
2 | CCCCCC1CC1CC1CC1CCCCCCCC(=O)O (centres unmarked) [DCPLA, 8-[2-(2-pentylcyclopropyl)methyl]-cyclopropaneoctanoic acid] |  |  |  |  |  |  |  |  |  |  | 95 | 1 | 93 | 3 | 94 | 2 | 93 | 3 | protected the decrease in mushroom spine shape dendritic spines and synapses | prevents synaptic loss
